# In ChEMBL document CHEMBL4834431, “Design of Dimeric Bile Acid Derivatives as Potent and Selective Human NTCP Inhibitors” (J Med Chem, 2021):
# Tested on: Hepatitis B virus
# Assay: Antiviral activity against HBV infected in human HepG2-NTCP cells assessed as reduction in HBeAg secretion incubated for 24 hrs followed replacement with fresh medium and measured at day 5 post infection by ELISA
# Format: functional, organism-based
row,Compound,IC50 [nM]
1,C[C@@H]1CCC(=O)NCCCNC(=O)CC[C@@H](C)[C@H]2CC[C@H]3[C@@H]4[C@@H](O)C[C@@H]5C[C@@H](CC[C@]5(C)[C@H]4CC[C@]23C)NC(=O)CCCC(=O)N[C@@H]2CC[C@@]3(C)[C@@H](C2)C[C@H](O)[C@@H]2[C@@H]3CC[C@]3(C)[C@@H]1CC[C@@H]23,564
2,C[C@@H]1CCC(=O)NCCCNC(=O)CC[C@@H](C)[C@H]2CC[C@H]3[C@@H]4[C@@H](O)C[C@@H]5CC[C@@H](C[C@]5(C)[C@H]4CC[C@]23C)n2cc(nn2)CO[C@H]2CC[C@H]3C[C@H](O)[C@@H]4[C@H](CC[C@]5(C)[C@@H]1CC[C@@H]45)[C@@]3(C)C2,178
3,C[C@H](CCC(=O)NCCS(=O)(=O)O)[C@H]1CC[C@H]2[C@@H]3[C@H](O)C[C@@H]4C[C@H](OC(=O)CCCC(=O)O[C@@H]5CC[C@@]6(C)[C@@H](C5)C[C@@H](O)[C@@H]5[C@@H]6CC[C@]6(C)[C@@H]([C@H](C)CCC(=O)NCCS(=O)(=O)O)CC[C@@H]56)CC[C@]4(C)[C@H]3CC[C@]12C,187
4,C[C@H](CCC(=O)O)[C@H]1CC[C@H]2[C@@H]3[C@@H](O)C[C@@H]4CC(NC(=O)CCCC(=O)NC5CC[C@@]6(C)[C@@H](C5)C[C@H](O)[C@@H]5[C@@H]6CC[C@]6(C)[C@@H]([C@H](C)CCC(=O)O)CC[C@@H]56)CC[C@]4(C)[C@H]3CC[C@]12C (stereo partly drawn),3570
5,C[C@H](CCC(=O)NCCS(=O)(=O)O)[C@H]1CC[C@H]2[C@@H]3[C@@H](O)C[C@@H]4C/C(=C5\CC[C@@]6(C)[C@@H](C5)C[C@H](O)[C@@H]5[C@@H]6CC[C@]6(C)[C@@H]([C@H](C)CCC(=O)NCCS(=O)(=O)O)CC[C@@H]56)CC[C@]4(C)[C@H]3CC[C@]12C,> 10000
6,C[C@@H]1CCC(=O)NCCCCNC(=O)CC[C@@H](C)[C@H]2CC[C@H]3[C@@H]4[C@@H](O)C[C@@H]5CC[C@@H](C[C@]5(C)[C@H]4CC[C@]23C)n2cc(nn2)CO[C@H]2CC[C@H]3C[C@H](O)[C@@H]4[C@H](CC[C@]5(C)[C@@H]1CC[C@@H]45)[C@@]3(C)C2,280
7,C[C@@H]1CCC(=O)NCCCCCNC(=O)CC[C@@H](C)[C@H]2CC[C@H]3[C@@H]4[C@@H](O)C[C@@H]5CC[C@@H](C[C@]5(C)[C@H]4CC[C@]23C)n2cc(nn2)CO[C@H]2CC[C@H]3C[C@H](O)[C@@H]4[C@H](CC[C@]5(C)[C@@H]1CC[C@@H]45)[C@@]3(C)C2,465
8,C[C@H](CCc1cn([C@@H]2CC[C@@]3(C)[C@@H](C2)C[C@H](O)[C@@H]2[C@@H]3CC[C@]3(C)[C@@H]([C@H](C)CCC(=O)O)CC[C@@H]23)nn1)[C@H]1CC[C@H]2[C@@H]3[C@@H](O)C[C@@H]4C[C@H](O)CC[C@]4(C)[C@H]3CC[C@]12C,25
9,C[C@H](CCC(=O)NCCS(=O)(=O)O)[C@H]1CC[C@H]2[C@@H]3[C@@H](O)C[C@@H]4CC(NCCNC5CC[C@@]6(C)[C@@H](C5)C[C@H](O)[C@@H]5[C@@H]6CC[C@]6(C)[C@@H]([C@H](C)CCC(=O)NCCS(=O)(=O)O)CC[C@@H]56)CC[C@]4(C)[C@H]3CC[C@]12C (stereo partly drawn),7680
10,C[C@H](CCC(=O)NCCS(=O)(=O)O)[C@H]1CC[C@H]2[C@@H]3[C@@H](O)C[C@@H]4C[C@H](NCCCCCN[C@@H]5CC[C@@]6(C)[C@@H](C5)C[C@H](O)[C@@H]5[C@@H]6CC[C@]6(C)[C@@H]([C@H](C)CCC(=O)NCCS(=O)(=O)O)CC[C@@H]56)CC[C@]4(C)[C@H]3CC[C@]12C,9650
11,C[C@H](CCC(=O)NCCS(=O)(=O)O)[C@H]1CC[C@H]2[C@@H]3[C@@H](O)C[C@@H]4CC(O)(C5(O)CC[C@@]6(C)[C@H](C[C@H](O)[C@@H]7[C@@H]6CC[C@]6(C)[C@@H]([C@H](C)CCC(=O)NCCS(=O)(=O)O)CC[C@@H]76)C5)CC[C@]4(C)[C@H]3CC[C@]12C (stereo partly drawn),> 10000
12,C[C@@H]1CCC(=O)NCCNC(=O)CC[C@@H](C)[C@H]2CC[C@H]3[C@@H]4[C@@H](O)C[C@@H]5C[C@H](CC[C@]5(C)[C@H]4CC[C@]23C)NC(=O)CN(C)CC(=O)N[C@@H]2CC[C@@]3(C)[C@@H](C2)C[C@H](O)[C@@H]2[C@@H]3CC[C@]3(C)[C@@H]1CC[C@@H]23,1210
13,C[C@H](CCC(=O)O)[C@H]1CC[C@H]2[C@@H]3[C@@H](O)C[C@@H]4C[C@H](NC(=O)CCCC(=O)N[C@@H]5CC[C@@]6(C)[C@@H](C5)C[C@H](O)[C@@H]5[C@@H]6CC[C@]6(C)[C@@H]([C@H](C)CCC(=O)NCCS(=O)(=O)O)CC[C@@H]56)CC[C@]4(C)[C@H]3CC[C@]12C,93
14,C[C@H](CCC(=O)O[C@@H]1CC[C@@]2(C)[C@@H](C1)C[C@H](O)[C@@H]1[C@@H]2CC[C@]2(C)[C@@H]([C@H](C)CCC(=O)O[C@@H]3CC[C@@]4(C)[C@@H](C3)C[C@H](O)[C@@H]3[C@@H]4CC[C@]4(C)[C@@H]([C@H](C)CCC(=O)NCCS(=O)(=O)O)CC[C@@H]34)CC[C@@H]12)[C@H]1CC[C@H]2[C@@H]3[C@@H](O)C[C@@H]4C[C@H](O)CC[C@]4(C)[C@H]3CC[C@]12C,2650
15,C[C@H](CCC(=O)NCCS(=O)(=O)O)[C@H]1CC[C@H]2[C@@H]3[C@@H](O)C[C@@H]4CC(NC(=O)CCCC(=O)NC5CC[C@@]6(C)[C@@H](C5)C[C@H](O)[C@@H]5[C@@H]6CC[C@]6(C)[C@@H]([C@H](C)CCC(=O)NCCS(=O)(=O)O)CC[C@@H]56)CC[C@]4(C)[C@H]3CC[C@]12C (stereo partly drawn),41
16,C[C@H](CCCNC(=O)CC[C@@H](C)[C@H]1CC[C@H]2[C@@H]3[C@@H](O)C[C@@H]4C[C@H](O)CC[C@]4(C)[C@H]3CC[C@]12C)[C@H]1CC[C@H]2[C@@H]3[C@@H](O)C[C@@H]4C[C@H](O)CC[C@]4(C)[C@H]3CC[C@]12C,> 10000
17,C[C@H](CCC(=O)NCCS(=O)(=O)O)[C@H]1CC[C@H]2[C@@H]3CC[C@@H]4C[C@H](OC(=O)CCCC(=O)O[C@@H]5CC[C@@]6(C)[C@H](CC[C@@H]7[C@@H]6CC[C@]6(C)[C@@H]([C@H](C)CCC(=O)NCCS(=O)(=O)O)CC[C@@H]76)C5)CC[C@]4(C)[C@H]3CC[C@]12C,3240
18,C[C@@H]1CCCOC(=O)CC[C@@H](C)[C@H]2CC[C@H]3[C@@H]4[C@@H](O)C[C@@H]5C[C@@H](CC[C@]5(C)[C@H]4CC[C@]23C)NC(=O)CCCC(=O)N[C@@H]2CC[C@@]3(C)[C@@H](C2)C[C@H](O)[C@@H]2[C@@H]3CC[C@]3(C)[C@@H]1CC[C@@H]23,525
